Results taken from ChEMBL document CHEMBL3044806, “Target-site mutation associated with glufosinate resistance in Italian ryegrass (Lolium perenne L. ssp. multiflorum)” (Pest Manag Sci, 2012).

Tests used:
Lolium multiflorum [1] = assay: (§1) Induction of ammonia accumulation in glufosinate-resistant Lolium multiflorum MG (Italian ryegrass) seedlings at 3-leaf stage assessed as ammonia level per gram of leaves fresh weight at 0.4 kg Ai/ha measured 96 hr after compound treatment under greenhouse conditions (reference value: 12.41 +/- 0.97 ug/g of leaves fresh weight); assay type: functional
Glutamine synthetase [2] = biological target: T1, Glutamine synthetase (Lolium perenne, UniProt C5IW59); assay: Inhibition of glutamine synthetase in glufosinate-susceptible Lolium multiflorum C1 (Italian ryegrass) seedlings; settings: read-out: I50
T1 sequence (C5IW59 whole entry): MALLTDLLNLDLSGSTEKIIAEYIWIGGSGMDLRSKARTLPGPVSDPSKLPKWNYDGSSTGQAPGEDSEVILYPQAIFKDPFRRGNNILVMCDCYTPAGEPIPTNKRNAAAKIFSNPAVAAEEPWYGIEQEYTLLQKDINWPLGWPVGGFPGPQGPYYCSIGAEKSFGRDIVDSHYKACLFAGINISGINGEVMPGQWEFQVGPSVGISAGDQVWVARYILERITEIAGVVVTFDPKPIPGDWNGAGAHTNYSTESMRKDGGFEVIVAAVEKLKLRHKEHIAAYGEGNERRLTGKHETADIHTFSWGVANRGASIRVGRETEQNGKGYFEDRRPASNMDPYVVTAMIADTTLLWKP

Lolium multiflorum [3] = assay: as §1, with “glufosinate-susceptible” for “glufosinate-resistant”, “C1” for “MG”, “48” for “96”, “11.04” for “12.41”, “0.89” for “0.97”; assay type: functional
Lolium multiflorum [4] = assay: as §1, with “72” for “96”; assay type: functional
Lolium multiflorum [5] = assay: Resistance index, ratio of GR50 for glufosinate-resistant Lolium multiflorum MG (Italian ryegrass) expressing one amino acid substitution in plastidic GS2 gene aspartic acid for asparagine at position 171 to GR50 for glufosinate-susceptible Lolium multiflorum (Italian ryegrass)C1; assay type: functional
Lolium multiflorum [6] = assay: as §1, with “glufosinate-susceptible” for “glufosinate-resistant”, “C2” for “MG”, “14.79” for “12.41”, “4.09” for “0.97”; assay type: functional
Lolium multiflorum [7] = assay: as §1, with “48” for “96”; assay type: functional
Lolium multiflorum [8] = assay: as §1, with “glufosinate-susceptible” for “glufosinate-resistant”, “multiflorum” for “multiflorum MG”, “three-leaf” for “3-leaf”, “24” for “96”, “11.04” for “12.41”, “0.89” for “0.97”; assay type: functional, C1
Glutamine synthetase [9] = biological target: T1, Glutamine synthetase; assay: Inhibition of glutamine synthetase in glufosinate-resistant Lolium multiflorum MG (Italian ryegrass) seedlings; settings: read-out: I50
Lolium multiflorum [10] = assay: Herbicidal activity against glufosinate-resistant Lolium multiflorum MG (Italian ryegrass) expressing one amino acid substitution in plastidic GS2 gene aspartic acid for asparagine at position 171 assessed as reduction above-ground dry weight measured after 15 days post compound treatment under greenhouse conditions; assay type: functional
Lolium multiflorum [11] = assay: as §1, with “glufosinate-susceptible” for “glufosinate-resistant”, “C1” for “MG”, “11.04” for “12.41”, “0.89” for “0.97”; assay type: functional
Lolium multiflorum [12] = assay: as §1, with “glufosinate-susceptible” for “glufosinate-resistant”, “C2” for “MG”, “48” for “96”, “14.79” for “12.41”, “4.09” for “0.97”; assay type: functional
Lolium multiflorum [13] = assay: Resistance index, ratio of GR50 for glufosinate-resistant Lolium multiflorum MG (Italian ryegrass) expressing one amino acid substitution in plastidic GS2 gene aspartic acid for asparagine at position 171 to GR50 for glufosinate-susceptible Lolium multiflorum (Italian ryegrass)C2; assay type: functional
Glutamine synthetase [14] = biological target: T1, Glutamine synthetase; assay: Inhibition of glutamine synthetase in glufosinate-susceptible Lolium multiflorum C2 (Italian ryegrass) seedlings; settings: read-out: I50
Lolium multiflorum [15] = assay: as §1, with “glufosinate-susceptible” for “glufosinate-resistant”, “C2” for “MG”, “72” for “96”, “14.79” for “12.41”, “4.09” for “0.97”; assay type: functional
Lolium multiflorum [16] = assay: as §1, with “24” for “96”; assay type: functional
Lolium multiflorum [17] = assay: Herbicidal activity against glufosinate-susceptible Lolium multiflorum C2 (Italian ryegrass) assessed as reduction above-ground dry weight measured after 15 days post compound treatment under greenhouse conditions; assay type: functional
Lolium multiflorum [18] = assay: as §1, with “glufosinate-susceptible” for “glufosinate-resistant”, “C1” for “MG”, “72” for “96”, “11.04” for “12.41”, “0.89” for “0.97”; assay type: functional
Lolium multiflorum [19] = assay: as §1, with “glufosinate-susceptible” for “glufosinate-resistant”, “C2” for “MG”, “24” for “96”, “14.79” for “12.41”, “4.09” for “0.97”; assay type: functional
Lolium multiflorum [20] = assay: Herbicidal activity against glufosinate-susceptible Lolium multiflorum C1 (Italian ryegrass) assessed as reduction above-ground dry weight measured after 15 days post compound treatment under greenhouse conditions; assay type: functional

Q: Which Activity (Lolium multiflorum [1]) does the source give for CP(=O)(O)CCC(N)C(=O)O (stereo not given) [GLUFOSINATE] here?
A: Its Activity is 256 µg/g.

Q: What about the IC50 (Glutamine synthetase [2]) of the same compound?
A: The IC50 was 31 µM.

Q: What about the Activity (Lolium multiflorum [3]) of the same compound?
A: Its Activity is 304 µg/g.

Q: And the Activity (Lolium multiflorum [4])?
A: The Activity was 212 µg/g.

Q: And the Ratio (Lolium multiflorum [5])?
A: The Ratio was 2.8.

Q: What about the Activity (Lolium multiflorum [6]) of the same compound?
A: Its Activity is 384 µg/g.

Q: What about the Activity (Lolium multiflorum [7]) of the same compound?
A: Its Activity is 187 µg/g.

Q: And the Activity (Lolium multiflorum [8])?
A: Its Activity is 225 µg/g.

Q: What about the IC50 (Glutamine synthetase [9]) of the same compound?
A: Its IC50 is 2.43 mM.

Q: And the GR50 (Lolium multiflorum [10])?
A: Its GR50 is 0.45 KgAi/ha.

Q: And the Activity (Lolium multiflorum [11])?
A: Its Activity is 428 µg/g.

Q: What about the Activity (Lolium multiflorum [12]) of the same compound?
A: Its Activity is 320 µg/g.

Q: And the Ratio (Lolium multiflorum [13])?
A: The Ratio was 2.8.

Q: What about the IC50 (Glutamine synthetase [14]) of the same compound?
A: The IC50 was 137 µM.

Q: And the Activity (Lolium multiflorum [15])?
A: Its Activity is 353 µg/g.

Q: And the Activity (Lolium multiflorum [16])?
A: Its Activity is 165 µg/g.

Q: What about the GR50 (Lolium multiflorum [17]) of the same compound?
A: The GR50 was 0.18 KgAi/ha.

Q: And the Activity (Lolium multiflorum [18])?
A: Its Activity is 332 µg/g.

Q: And the Activity (Lolium multiflorum [19])?
A: Its Activity is 244 µg/g.

Q: And the GR50 (Lolium multiflorum [20])?
A: Its GR50 is 0.15 KgAi/ha.
